In this assay the test system is human endometrial cancer cell strain AN3CA tumor. The experiment in a line: Anti-tumor effect assay using mouse subcutaneous transplantation model. The format is in vivo, female nude mouse. The settings on record: AN3-CA, oral, tumor weight vs negative control, read-out: Anti-tumor effect (tumor growth inhibition rate); for inhibition in vivo at 2.5 mg/kg/day / inhibition in vivo at 5 mg/kg/day / inhibition in vivo at 10 mg/kg/day: 8 or 5 consecutive days depending on compound; for inhibition in vivo at 20 mg/kg/day: consecutive days. How it is done: A tumor section was prepared from a human endometrial cancer cell strain AN3CA tumor mass formed in a female nude mouse as a subcutaneously transplanted tumor and then a xenograft model was prepared by transplanting the tumor section into female nude mouse. Tumor-bearing mice having an estimated tumor volume (long diameter×short diameter×short diameter/2) of 80 to 200 mm^3 were divided, so that there should be no significant difference in the mean estimated tumor volume and body weight as compared with the negative control group to perform a test. The test compound was orally administered at a predetermined dose for 8 consecutive days. On the following day of the final administration day, tumor-bearing mice were anesthetized and exsanguinated to death and a tumor mass was isolated to measure tumor weight (the compounds of Examples 1, 3, 6, 8, 11, 12, and 14). Furthermore, as a similar test, the test compound was orally administered for 5 consecutive days, animals were sacrificed on the final administration day, and tumor weight was measured (the compounds of Examples 60, 63, 75, 77, 79, 89, 92, 107, 108, 109, 110, and 127).
In all the tests, anti-tumor effect was calculated by the following formula. {1−(tumor weight in compound treatment group/tumor weight in negative control group)}×100

Regarding `CS(=O)(=O)N1CCN(c2nc3c(N4CCOCC4)nc(-c4cnc(N)nc4)nc3n2CC(F)(F)F)CC1` [Example 8, 5-{8-[4-(Methylsulfonyl)piperazin-1-yl]-6-morpholin-4-yl-9-(2,2,2-trifluoroethyl)-9H-purin-2-yl}pyrimidin-2-amine], the inhibition in vivo at 2.5 mg/kg/day came to 72% and the inhibition in vivo at 5 mg/kg/day was determined as 93%.

In the case of `CC(C)Cn1c(N2CCN(C=O)[C@H](C)C2)nc2c(N3CCOCC3)nc(-c3cnc(N)nc3)nc21` [Example 100, (2R)-4-[2-(2-Aminopyrimidin-5-yl)-9-isobutyl-6-morpholin-4-yl-9H-purin-8-yl]-2-methylpiperazine-1-carboaldehyde], the inhibition in vivo at 2.5 mg/kg/day came to 53% and the inhibition in vivo at 5 mg/kg/day came out at 62%.

As to `CC(=O)N1CCN(c2nc3c(N4CCOCC4)nc(-c4cnc(N)nc4)nc3n2CC(F)(F)F)C[C@H]1C` [Example 60, 5-{8-[(3R)-4-Acetyl-3-methylpiperazin-1-yl]-6-morpholin-4-yl-9-(2,2,2-trifluoroethyl)-9H-purin-2-yl}pyrimidin-2-amine], the inhibition in vivo at 1.5 mg/kg/day (120 h, 1.5 mg/kg/day, 5 consecutive days) amounted to 64%. For the same compound, the inhibition in vivo at 6 mg/kg/day (120 h, 6 mg/kg/day, 5 consecutive days) was found to be 89%.

In the case of `C[C@H](O)C(=O)N1CCN(c2nc3c(N4CCOCC4)nc(-c4cnc(N)nc4)nc3n2CC(F)(F)F)C[C@@H]1C` [Example 109, (2S)-1-{(2S)-4-[2-(2-Aminopyrimidin-5-yl)-6-morpholin-4-yl-9-(2,2,2-trifluoroethyl)-9H-purin-8-yl]-2-methylpiperazin-1-yl}-1-oxopropan-2-ol], under “120 h, 5 consecutive days”, the inhibition in vivo at 1.875 mg/kg/day was 42% and the inhibition in vivo at 7.5 mg/kg/day was 80%.

As to `CC[C@H]1CN(c2nc3c(N4CCOCC4)nc(-c4cnc(N)nc4)nc3n2CC(F)(F)F)CCN1C(C)=O` [Example 75, 5-{8-[(3S)-4-Acetyl-3-ethylpiperazin-1-yl]-6-morpholin-4-yl-9-(2,2,2-trifluoroethyl)-9H-purin-2-yl}pyrimidin-2-amine], where the note is “120 h, 5 consecutive days”, the inhibition in vivo at 1.875 mg/kg/day amounted to 44% and the inhibition in vivo at 7.5 mg/kg/day was 77%.

Regarding `CC(C)Cn1c(N2CCN(S(C)(=O)=O)[C@H](C)C2)nc2c(N3CCOCC3)nc(-c3cnc(N)nc3)nc21` [Example 54, 5-{9-Isobutyl-8-[(3R)-3-methyl-4-(methylsulfonyl)piperazin-1-yl]-6-morpholin-4-yl-9H-purin-2-yl}pyrimidin-2-amine], the inhibition in vivo at 10 mg/kg/day was 74% and the inhibition in vivo at 20 mg/kg/day came out at 82%.

For `CC(C)Cn1c(N2CCN(C(=O)CO)CC2)nc2c(N3CCOCC3)nc(-c3cnc(N)nc3)nc21` [Example 89, 2-{4-[2-(2-Aminopyrimidin-5-yl)-9-isobutyl-6-morpholin-4-yl-9H-purin-8-yl]piperazin-1-yl}-2-oxoethanol], the inhibition in vivo at 5 mg/kg/day was determined as 56% and the inhibition in vivo at 10 mg/kg/day is 69%.

Take `CC(C)Cn1c(N2CCN(S(C)(=O)=O)CC2)nc2c(N3CCOCC3)nc(-c3cnc(N)nc3)nc21` [Example 1, 5-{9-Isobutyl-8-[4-(methylsulfonyl)piperazin-1-yl]-6-morpholin-4-yl-9H-purin-2-yl}pyrimidin-2-amine]: the inhibition in vivo at 5 mg/kg/day was 79% and the inhibition in vivo at 10 mg/kg/day was found to be 92%.

As to `CC(C)Cn1c(N2CCN(C(=O)C[C@@H](C)O)CC2)nc2c(N3CCOCC3)nc(-c3cnc(N)nc3)nc21` [Example 81, (2R)-4-{4-[2-(2-Aminopyrimidin-5-yl)-9-isobutyl-6-morpholin-4-yl-9H-purin-8-yl]piperazin-1-yl}-4-oxobutan-2-ol], the inhibition in vivo at 5 mg/kg/day stood at 37% and the inhibition in vivo at 10 mg/kg/day was 74%.

In the case of `CC(C)Cn1c(N2CCN(C=O)[C@@H](C)C2)nc2c(N3CCOCC3)nc(-c3cnc(N)nc3)nc21` [Example 102, (2S)-4-[2-(2-Aminopyrimidin-5-yl)-9-isobutyl-6-morpholin-4-yl-9H-purin-8-yl]-2-methylpiperazine-1-carboaldehyde], the inhibition in vivo at 2.5 mg/kg/day amounted to 54% and the inhibition in vivo at 5 mg/kg/day is 64%.

Take `CC(C)Cn1c(N2CCN(C=O)CC2)nc2c(N3CCOCC3)nc(-c3cnc(N)nc3)nc21` [Example 90, 4-[2-(2-Aminopyrimidin-5-yl)-9-isobutyl-6-morpholin-4-yl-9H-purin-8-yl]piperazine-1-carboaldehyde]: the inhibition in vivo at 5 mg/kg/day was 40% and the inhibition in vivo at 10 mg/kg/day is 80%.

In the case of `CC[C@H]1CN(c2nc3c(N4CCOCC4)nc(-c4cnc(N)nc4)nc3n2CC(F)(F)F)CCN1C(=O)[C@H](C)O` [Example 77, (2S)-1-{(2S)-4-[2-(2-Aminopyrimidin-5-yl)-6-morpholin-4-yl-9-(2,2,2-trifluoroethyl)-9H-purin-8-yl]-2-ethylpiperazin-1-yl}-1-oxopropan-2-ol], the inhibition in vivo at 3.75 mg/kg/day (120 h, 3.75 mg/kg/day, 5 consecutive days) is 47%. Also, the inhibition in vivo at 15 mg/kg/day (120 h, 15 mg/kg/day, 5 consecutive days) was 84%.

Consider `CNc1ncc(-c2nc(N3CCOCC3)c3nc(N4CCN(S(C)(=O)=O)CC4)n(CC(F)(F)F)c3n2)cn1` [Example 11, N-Methyl-5-{8-[4-(methylsulfonyl)piperazin-1-yl]-6-morpholin-4-yl-9-(2,2,2-trifluoroethyl)-9H-purin-2-yl}pyrimidin-2-amine], for which the inhibition in vivo at 2.5 mg/kg/day was determined as 68% and the inhibition in vivo at 5 mg/kg/day worked out at 85%.

In the case of `CC(C)Cn1c(N2CCN(C(=O)CN(C)C)CC2)nc2c(N3CCOCC3)nc(-c3cnc(N)nc3)nc21` [Example 55, 5-(8-{4-[(Dimethylamino)acetyl]piperazin-1-yl}-9-isobutyl-6-morpholin-4-yl-9H-purin-2-yl)pyrimidin-2-amine], the inhibition in vivo at 10 mg/kg/day came to 32% and the inhibition in vivo at 20 mg/kg/day is 59%.

For the compound `C[C@H]1COCCN1c1nc(-c2cnc(N)nc2)nc2c1nc(N1CCN(S(C)(=O)=O)CC1)n2CC(F)(F)F` [Example 127, 5-{6-[(3S)-3-Methylmorpholin-4-yl]-8-[4-(methylsulfonyl)piperazin-1-yl]-9-(2,2,2-trifluoroethyl)-9H-purin-2-yl}pyrimidin-2-amine], the inhibition in vivo at 5 mg/kg/day was 69% and the inhibition in vivo at 10 mg/kg/day came to 79%.

As for `CC(=O)N1CCN(c2nc3c(N4CCOCC4)nc(-c4cnc(N)nc4)nc3n2CC(C)C)C[C@@H]1C` [Example 101, 5-{8-[(3S)-4-Acetyl-3-methylpiperazin-1-yl]-9-isobutyl-6-morpholin-4-yl-9H-purin-2-yl}pyrimidin-2-amine], the inhibition in vivo at 2.5 mg/kg/day amounted to 42% and the inhibition in vivo at 5 mg/kg/day came to 69%.

For `CC[C@@H]1CN(c2nc3c(N4CCOCC4)nc(-c4cnc(N)nc4)nc3n2CC(F)(F)F)CCN1C(=O)[C@H](C)O` [Example 79], the inhibition in vivo at 2.5 mg/kg/day amounted to 27% and the inhibition in vivo at 10 mg/kg/day is 59%.

For the compound `CNc1ncc(-c2nc(N3CCOCC3)c3nc(N4CCN(C(C)=O)[C@@H](C)C4)n(CC(F)(F)F)c3n2)cn1` [Example 107, 5-{8-[(3S)-4-Acetyl-3-methylpiperazin-1-yl]-6-morpholin-4-yl-9-(2,2,2-trifluoroethyl)-9H-purin-2-yl}-N-methylpyrimidin-2-amine], the inhibition in vivo at 5 mg/kg/day amounted to 76%. Moreover, the inhibition in vivo at 1.25 mg/kg/day (120 h, 1.25 mg/kg/day, 5 consecutive days) stood at 46%.

With `CC(C)Cn1c(N2CCN(S(C)(=O)=O)[C@@H](C)C2)nc2c(N3CCOCC3)nc(-c3cnc(N)nc3)nc21` [Example 53, 5-{9-Isobutyl-8-[(3S)-3-methyl-4-(methylsulfonyl)piperazin-1-yl]-6-morpholin-4-yl-9H-purin-2-yl}pyrimidin-2-amine], the inhibition in vivo at 5 mg/kg/day was found to be 45% and the inhibition in vivo at 10 mg/kg/day stood at 68%.

As to `Cc1nc(N)ncc1-c1nc(N2CCOCC2)c2nc(N3CCN(S(C)(=O)=O)CC3)n(CC3CC3)c2n1` [Example 6, 5-{9-(Cyclopropylmethyl)-8-[4-(methylsulfonyl)piperazin-1-yl]-6-morpholin-4-yl-9H-purin-2-yl}-4-methylpyrimidin-2-amine], the inhibition in vivo at 5 mg/kg/day turned out to be 66% and the inhibition in vivo at 10 mg/kg/day is 69%.

For the origin of these results see patent US8309546B2, “Morpholinopurine derivatives” (Daiichi Sankyo Company, Limited, priority 2008, dated 2012).
